Reference: paper PMC10897476, “Pyridylpiperazine efflux pump inhibitor boosts in vivo antibiotic efficacy against K. pneumoniae” (EMBO Molecular Medicine, 2023)
Where two headings read alike, the source gives them in different places. Marks after values point to notes of the source that are not given here.

Columns and labels:
K. pneumoniae AcrB^V448E = assay: MIC of antibiotics with and without EPI (REMA), AcrB V448E mutant; format: cell-based, Klebsiella pneumoniae; conditions: for Minimum Inhibitory Concentration: K. pneumoniae AcrB^V448E; for MIC: Klebsiella pneumoniae, read-out: Minimum Inhibitory Concentration
Description: (§1) MIC experiments were carried out according to the CLSI guidelines (CLSI [2023]). Overnight cultures were diluted to an OD600 = 0.001 in CAMHB followed by addition of efflux pump inhibitors (EPIs) at a final concentration of 100 µM. […] Plates were incubated at 37 °C for up to 20 h. Bacterial viability was evaluated using the resazurin microtitre assay (REMA) and measured by fluorescence using a Tecan Spaert multimode plate reader (Ex: 530 nm Em: 590 nm). MICs were defined as the concentration that prevented 90% of resazurin turnover compared to the non-treated bacteria.
(§2) Mutations in acrB or ramR identified in the BDM88855.HCl (1’) resistant mutant (a.k.a., KPJC11) were introduced individually into K. pneumoniae ATCC 43816 chromosome by allelic exchange (Cianfanelli et al, [2020]). Briefly, 1-kb PCR products centred around each point mutation were generated by amplifying acrB with primers RH1251 ([…][…]) and RH1252 ([…][…]) or ramR with primers RH1249 ([…][…]) and RH1250 ([…][…]) from KPJC11 genomic DNA. PCR fragments were cloned into pFOK (Cianfanelli et al, [2020]) using NEB-building kit ([New England Biolabs]) to generate pEP1533 and pEP1534. Correct plasmids were confirmed by sequencing and introduced into K. pneumoniae ATCC43816 WT via conjugation with the MFDpir+ E. coli donor strain. Exconjugants were selected on kanamycin (50 mg/L) plates at 37 °C and plasmid chromosomal integration was checked by PCR. […] The next day, cultures were diluted and plated onto LB agar. Isolated colonies were then patched onto LB plates with or without kanamycin (50 mg/L) and Km^S candidates were evaluated for correct allelic exchange via acrB or ramR sequencing and then WGS to confirm no additional mutations were introduced.

[1] = system: K. pneumoniae AcrB^V448E RamR^mut; assay: MIC of antibiotics with and without EPI (REMA), double mutant; format: cell-based, Klebsiella pneumoniae; conditions: for Minimum Inhibitory Concentration: K. pneumoniae AcrB^V448E RamR^mut; for MIC: Klebsiella pneumoniae, read-out: Minimum Inhibitory Concentration
Description: as §1

[2] = system: K. pneumoniae ATCC 43816 (WT); assay: MIC of antibiotics with and without EPI (REMA), WT strain; format: cell-based, Klebsiella pneumoniae; conditions: for MIC: Klebsiella pneumoniae
Description: Overnight cultures were diluted to an OD600 = 0.001 in CAMHB followed by addition of efflux pump inhibitors (EPIs) at a final concentration of 100 µM. […] Plates were incubated at 37 °C for up to 20 h. […] MICs were defined as the concentration that prevented 90% of resazurin turnover compared to the non-treated bacteria.

[3] = system: K. pneumoniae RamR^mut (K124*stop); assay: MIC of antibiotics with and without EPI (REMA), RamR mutant; format: cell-based, Klebsiella pneumoniae; conditions: for Minimum Inhibitory Concentration: K. pneumoniae RamR^mut; for MIC: Klebsiella pneumoniae, read-out: Minimum Inhibitory Concentration
Description: as §1, §2

E. coli BW25113 = assay: PyrPip boosting of pyridomycin activity in E. coli (resazurin reduction); format: cell-based, Escherichia coli; conditions: for EC90: E. coli BW25113 in the presence of 8 μg/mL pyridomycin, resazurin reduction, mean ± SEM, read-out: PyrPip antibiotic boosting activity EC90
Description: With the aim of developing a PyrPip for in vivo efficacy studies in mice, it was important to optimise the metabolic stability of these efflux pump inhibitors to guarantee sufficient exposure in mice needed for antibiotic boosting. […] To identify metabolically stabilised PyrPips while maintaining AcrB inhibition, it was therefore decided to explore modifications to the quinoline core as well as the introduction of substituents at position 6 of the quinoline ring.

[4] = Microsomal stability in mouse liver microsomes; format: in vitro ADME; conditions: female; for microsomal CLint at 1 μM: CD-1, pH 7.4, read-out: Microsomal stability CLint (intrinsic clearance); for half-life at 1 μM: CD-1, pH 7.4, read-out: Microsomal stability t1/2
Description: To determine compound microsomal stability, liver microsomes from female mice (CD-1, Corning) were used. All incubations were performed in duplicate in a shaking water bath at 37 °C. The incubation mixtures contained 1 μM compound with 1% MeOH used as a vehicle, mouse liver microsomes (0.3 mg of microsomal protein per mL), 5 mM MgCl2, 1 mM NADP, 5 mM glucose 6-phosphate, 0.4 U/mL glucose 6-phosphate dehydrogenase, and 50 mM potassium phosphate buffer (pH 7.4) in a final volume of 0.5 mL. Propranolol, known as a high hepatic clearance drug in rodents, was used as a quality-control compound. Controls (t0 and tfinal) were performed in the same conditions but without NADP. The reaction was initiated by the addition of the compound at 1 µM final. Aliquots were removed at 5, 10, 20, 30, and 40 min and the reaction was stopped by adding four volumes of ice-cold MeCN or MeOH containing an internal standard. The samples were centrifuged for 10 min at 12,000 rpm at 4 °C and the supernatants were transferred in matrix tubes for LC-MS/MS analysis. Each compound was quantified by converting the corresponding analyte/internal standard peak area ratios to percentage drug remaining, using the initial ratio values in control incubations as 100%.
Intrinsic clearance (CLint) is expressed as μL/min/mg proteins.

[5] = K. pneumoniae WT, + 100 µM PAβN
[6] = ATCC43816, K. pneumoniae WT, No EPI, read-out: Minimum Inhibitory Concentration

C[C@@H](O)[C@H]1C(=O)N2C(C(=O)O)=C(S[C@@H]3CN[C@H](C(=O)N(C)C)C3)[C@H](C)[C@H]12 [Meropenem]
Minimum Inhibitory Concentration (K. pneumoniae AcrB^V448E; + 100 µM 1'): 0.67 mg/L
Minimum Inhibitory Concentration (K. pneumoniae AcrB^V448E; + 100 µM 5): 0.50 mg/L
Minimum Inhibitory Concentration (K. pneumoniae AcrB^V448E; + 100 µM PAβN): 0.50 mg/L
MIC (K. pneumoniae AcrB^V448E): 0.5 µg/mL
Minimum Inhibitory Concentration ([1]; + 100 µM 1'): 0.50 mg/L
Minimum Inhibitory Concentration ([1]; + 100 µM 5): 0.50 mg/L
Minimum Inhibitory Concentration ([1]; + 100 µM PAβN): 1.0 mg/L
MIC [1]: 0.67 µg/mL
Minimum Inhibitory Concentration ([2]; K. pneumoniae WT, + 100 µM 1'): 0.50 mg/L
Minimum Inhibitory Concentration ([2]; K. pneumoniae WT, + 100 µM 5): 0.50 mg/L
Minimum Inhibitory Concentration [2, 5]: 0.50 mg/L
MIC [2, 6]: 0.5 µg/mL
Minimum Inhibitory Concentration ([3]; + 100 µM 1'): 0.50 mg/L
Minimum Inhibitory Concentration ([3]; + 100 µM 5): 0.50 mg/L
Minimum Inhibitory Concentration ([3]; + 100 µM PAβN): 0.50 mg/L
MIC [3]: 0.5 µg/mL

CO[C@@H]1[C@@H](OC(N)=O)[C@@H](O)[C@H](Oc2ccc3c(O)c(NC(=O)c4ccc(O)c(CC=C(C)C)c4)c(=O)oc3c2C)OC1(C)C [Novobiocin]
Minimum Inhibitory Concentration (K. pneumoniae AcrB^V448E; + 100 µM 1'): 64^# mg/L
Minimum Inhibitory Concentration (K. pneumoniae AcrB^V448E; + 100 µM 5): 32^# mg/L
Minimum Inhibitory Concentration (K. pneumoniae AcrB^V448E; + 100 µM PAβN): 16^# mg/L
Minimum Inhibitory Concentration (K. pneumoniae AcrB^V448E; No EPI): 128 mg/L
Minimum Inhibitory Concentration ([1]; + 100 µM 1'): 128 mg/L
Minimum Inhibitory Concentration ([1]; + 100 µM 5): 128 mg/L
Minimum Inhibitory Concentration ([1]; + 100 µM PAβN): 8^# mg/L
Minimum Inhibitory Concentration ([1]; No EPI): 128 mg/L
Minimum Inhibitory Concentration ([2]; K. pneumoniae WT, + 100 µM 1'): 13^# mg/L
Minimum Inhibitory Concentration ([2]; K. pneumoniae WT, + 100 µM 5): 13^# mg/L
Minimum Inhibitory Concentration [2, 5]: 11^# mg/L
MIC [2, 6]: 64 µg/mL
Minimum Inhibitory Concentration ([3]; + 100 µM 1'): 128 mg/L
Minimum Inhibitory Concentration ([3]; + 100 µM 5): 85 mg/L
Minimum Inhibitory Concentration ([3]; + 100 µM PAβN): 43^# mg/L
Minimum Inhibitory Concentration ([3]; No EPI): 128 mg/L

CCN1CCN(C(=O)N[C@@H](C(=O)N[C@@H]2C(=O)N3[C@@H]2SC(C)(C)[C@@H]3C(=O)O)c2ccccc2)C(=O)C1=O [Piperacillin]
Minimum Inhibitory Concentration (K. pneumoniae AcrB^V448E; + 100 µM 1'): 5.3^# mg/L
Minimum Inhibitory Concentration (K. pneumoniae AcrB^V448E; + 100 µM 5): 5.3^# mg/L
Minimum Inhibitory Concentration (K. pneumoniae AcrB^V448E; + 100 µM PAβN): 13 mg/L
MIC (K. pneumoniae AcrB^V448E): 16 µg/mL
Minimum Inhibitory Concentration ([1]; + 100 µM 1'): 37 mg/L
Minimum Inhibitory Concentration ([1]; + 100 µM 5): 21 mg/L
Minimum Inhibitory Concentration ([1]; + 100 µM PAβN): 43 mg/L
MIC [1]: 21 µg/mL
Minimum Inhibitory Concentration ([2]; K. pneumoniae WT, + 100 µM 1'): 5.3 mg/L
Minimum Inhibitory Concentration ([2]; K. pneumoniae WT, + 100 µM 5): 4.0^# mg/L
Minimum Inhibitory Concentration [2, 5]: 8.0 mg/L
MIC [2, 6]: 8 µg/mL
Minimum Inhibitory Concentration ([3]; + 100 µM 1'): 16 mg/L
Minimum Inhibitory Concentration ([3]; + 100 µM 5): 6.7^# mg/L
Minimum Inhibitory Concentration ([3]; + 100 µM PAβN): 21 mg/L
MIC [3]: 27 µg/mL

CN(C)[C@@H]1C(O)=C(C(N)=O)C(=O)[C@@]2(O)C(O)=C3C(=O)c4c(O)cccc4[C@@](C)(O)[C@H]3C[C@@H]12 [Tetracycline]
Minimum Inhibitory Concentration (K. pneumoniae AcrB^V448E; + 100 µM 1'): 0.8^# mg/L
Minimum Inhibitory Concentration (K. pneumoniae AcrB^V448E; + 100 µM 5): 0.7^# mg/L
Minimum Inhibitory Concentration (K. pneumoniae AcrB^V448E; + 100 µM PAβN): 2.7 mg/L
MIC (K. pneumoniae AcrB^V448E): 1.9 µg/mL
Minimum Inhibitory Concentration ([1]; + 100 µM 1'): 11 mg/L
Minimum Inhibitory Concentration ([1]; + 100 µM 5): 8.5 mg/L
Minimum Inhibitory Concentration ([1]; + 100 µM PAβN): 4.3^# mg/L
MIC [1]: 11 µg/mL
Minimum Inhibitory Concentration ([2]; K. pneumoniae WT, + 100 µM 1'): 0.4^# mg/L
Minimum Inhibitory Concentration ([2]; K. pneumoniae WT, + 100 µM 5): 0.4^# mg/L
Minimum Inhibitory Concentration [2, 5]: 1.3 mg/L
MIC ([2]; ATCC43816, read-out: Minimum Inhibitory Concentration): 0.8 µg/mL
Minimum Inhibitory Concentration ([3]; + 100 µM 1'): 1.1^# mg/L
Minimum Inhibitory Concentration ([3]; + 100 µM 5): 0.7^# mg/L
Minimum Inhibitory Concentration ([3]; + 100 µM PAβN): 4.3^# mg/L
MIC [3]: 8.5 µg/mL

Clc1nc2ccccc2cc1N1CCNCC1 [compound 2]
EC90 (E. coli BW25113): 15.6 µM
decrease in potency (EC90) on changing the position of the nitrogen atom (E. coli BW25113; relative to BDM88855.HCl (1’)): 4 fold

Clc1nc2ccccc2nc1N1CCNCC1 [compound 3]
EC90 (E. coli BW25113): 3.9 ± 1.6 µM
microsomal CLint at 1 μM [4]: 111 µL/min/mg
half-life at 1 μM [4]: 15 min

Clc1cc2cc[nH]c2nc1N1CCNCC1 [compound 4]
EC90 (E. coli BW25113): > 250 µM

Clc1cc2cc(N3CCOCC3)ccc2nc1N1CCNCC1 [compound 6]
EC90 (E. coli BW25113): 104 ± 28 µM
microsomal CLint at 1 μM [4]: 103 µL/min/mg
half-life at 1 μM [4]: 11 min

Clc1cc2cc(N3CCCCC3)ccc2nc1N1CCNCC1 [compound 7]
EC90 (E. coli BW25113): 13 ± 4 µM
microsomal CLint at 1 μM [4]: 223 µL/min/mg
half-life at 1 μM [4]: 6 min

O=C1CNCCN1c1ccc2nc(N3CCNCC3)c(Cl)cc2c1 [compound 8]
EC90 (E. coli BW25113): 31 µM
decrease in potency (EC90) (E. coli BW25113; piperazinone in place of the piperazine of compound 5): 8 fold

NCCNc1ccc2nc(N3CCNCC3)c(Cl)cc2c1 [compound 9]
EC90 (E. coli BW25113): 3.9 µM
microsomal CLint at 1 μM [4]: 47 µL/min/mg
half-life at 1 μM [4]: 40 min

NCC(=O)Nc1ccc2nc(N3CCNCC3)c(Cl)cc2c1 [compound 10]
EC90 (E. coli BW25113): 3.9 µM
microsomal CLint at 1 μM [4]: 2 µL/min/mg
half-life at 1 μM [4]: > 40 min

NCCCNc1ccc2nc(N3CCNCC3)c(Cl)cc2c1 [compound 11]
EC90 (E. coli BW25113): 7.8 µM
decrease in potency (EC90) (E. coli BW25113; relative to compound 9): 2 fold

N[C@@H]1CCN(c2ccc3nc(N4CCNCC4)c(Cl)cc3c2)C1 [compound 12]
EC90 (E. coli BW25113): 1.3 ± 0.4 µM
improvement of potency (EC90) (E. coli BW25113; compared to analogue 5): 3 fold
microsomal CLint at 1 μM [4]: 303 µL/min/mg
half-life at 1 μM [4]: 2.6 min

N[C@H]1CCN(c2ccc3nc(N4CCNCC4)c(Cl)cc3c2)C1 [compound 13]
EC90 (E. coli BW25113): 9.1 ± 4.3 µM
